Source: the supplement of paper PMC11414989

Legend:
Settings in all cases: exposure window: 6 hpf to 120 hpf, static, assay age: 120 hpf (5 dpf)
[1] = test system: Danio rerio larvae (Tropical 5D); assay: mean distance moved of exposed larvae, dark phase (µm per frame (1/25 s)); higher = more movement
Method: (§1)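 Larval photomotor response in Tropical 5D wild-type zebrafish. Larvae were statically exposed to each chemical from 6 hpf to 5 dpf in 96-well plates; morphologically abnormal larvae were excluded. At 120 hpf, larvae were tracked with Ethovision XT (25 frames/s) over the 2nd cycle of 3 min light and 3 min dark. Values are the mean movement metric of exposed larvae per phase; same-plate control means (plate-dependent baseline) are given as conditions.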

[2] = test system: Danio rerio larvae (Tropical 5D); assay: mean distance moved of exposed larvae, light phase (µm per frame (1/25 s)); higher = more movement
Method: as §1

[3] = test system: Danio rerio larvae (Tropical 5D); assay: mean angular velocity of exposed larvae, dark phase (angular velocity (unit not stated)); higher = more movement
Method: as §1

[4] = test system: Danio rerio larvae (Tropical 5D); assay: mean angular velocity of exposed larvae, light phase (angular velocity (unit not stated)); higher = more movement
Method: as §1

SMILES: O=C(O)C(F)(F)C(F)(F)C(F)(F)C(F)(F)C(F)(F)C(F)(F)C(F)(F)C(F)(F)C(F)(F)C(F)(F)C(F)(F)C(F)(F)C(F)(F)C(F)(F)C(F)(F)C(F)(F)C(F)(F)F [Perfluoro-n-octadecanoic acid]
- mean distance moved of exposed larvae ([1]; 0.25 µM): 10.3
- mean distance moved of exposed larvae ([2]; 0.25 µM): 3.51
- mean angular velocity of exposed larvae ([3]; 0.25 µM): 0.571
- mean angular velocity of exposed larvae ([4]; 0.25 µM): 0.146

SMILES: O=S(=O)(O)C(F)(F)C(F)(F)C(F)(F)C(F)(F)C(F)(F)C(F)(F)C(F)(F)C(F)(F)Cl [Sodium 8-chloroperfluoro-1-octanesulfonate]
- mean distance moved of exposed larvae ([1]; 0.25 µM): 28.8
- mean distance moved of exposed larvae ([2]; 0.25 µM): 2.63
- mean angular velocity of exposed larvae ([3]; 0.25 µM): 0.945
- mean angular velocity of exposed larvae ([4]; 0.25 µM): 0.0987

SMILES: O=P(O)(C(F)(F)C(F)(F)C(F)(F)C(F)(F)C(F)(F)C(F)(F)F)C(F)(F)C(F)(F)C(F)(F)C(F)(F)C(F)(F)C(F)(F)F [Sodium bis(perfluorohexyl)phosphinate]
- mean distance moved of exposed larvae ([1]; 0.25 µM): 14.2
- mean distance moved of exposed larvae ([2]; 0.25 µM): 1.35
- mean angular velocity of exposed larvae ([3]; 0.25 µM): 0.687
- mean angular velocity of exposed larvae ([4]; 0.25 µM): 0.163

SMILES: O=S(=O)(O)C(F)(F)C(F)(F)C(F)(F)C(F)(F)C(F)(F)C(F)(F)C(F)(F)C(F)(F)C(F)(F)C(F)(F)F [Sodium perfluoro-1-decanesulfonate]
- mean distance moved of exposed larvae ([1]; 0.25 µM): 24.8
- mean distance moved of exposed larvae ([2]; 0.25 µM): 6.8
- mean angular velocity of exposed larvae ([3]; 0.25 µM): 0.897
- mean angular velocity of exposed larvae ([4]; 0.25 µM): 0.372

SMILES: O=S(=O)(O)C(F)(F)C(F)(F)C(F)(F)C(F)(F)F [Potassium perfluoro-1-butanesulfonate]
- mean distance moved of exposed larvae ([1]; 0.25 µM): 30.9
- mean distance moved of exposed larvae ([2]; 0.25 µM): 1.73
- mean angular velocity of exposed larvae ([3]; 0.25 µM): 1.11
- mean angular velocity of exposed larvae ([4]; 0.25 µM): 0.0624

SMILES: O=P(O)(C(F)(F)C(F)(F)C(F)(F)C(F)(F)C(F)(F)C(F)(F)C(F)(F)C(F)(F)F)C(F)(F)C(F)(F)C(F)(F)C(F)(F)C(F)(F)C(F)(F)C(F)(F)C(F)(F)F [Sodium bis(perfluorooctyl)phosphinate]
- mean distance moved of exposed larvae ([1]; 0.25 µM): 15.1
- mean distance moved of exposed larvae ([2]; 0.25 µM): 2.89
- mean angular velocity of exposed larvae ([3]; 0.25 µM): 0.704
- mean angular velocity of exposed larvae ([4]; 0.25 µM): 0.119

SMILES: CCN(CCOP(=O)(O)O)S(=O)(=O)C(F)(F)C(F)(F)C(F)(F)C(F)(F)C(F)(F)C(F)(F)C(F)(F)C(F)(F)F
- mean distance moved of exposed larvae ([1]; 0.25 µM): 23.4
- mean distance moved of exposed larvae ([2]; 0.25 µM): 3.01
- mean angular velocity of exposed larvae ([3]; 0.25 µM): 0.809
- mean angular velocity of exposed larvae ([4]; 0.25 µM): 0.169

SMILES: O=P(O)(O)C(F)(F)C(F)(F)C(F)(F)C(F)(F)C(F)(F)C(F)(F)Cl [6-Chloroperfluorohexylphosphonic acid]
- mean distance moved of exposed larvae ([1]; 0.167 µM): 20.6
- mean distance moved of exposed larvae ([2]; 0.167 µM): 6.62
- mean angular velocity of exposed larvae ([3]; 0.167 µM): 0.789
- mean angular velocity of exposed larvae ([4]; 0.167 µM): 0.212

SMILES: CN(CC(=O)O)S(=O)(=O)C(F)(F)C(F)(F)C(F)(F)C(F)(F)C(F)(F)C(F)(F)C(F)(F)C(F)(F)F [N-methylperfluoro-1-octanesulfonamidoacetic acid]
- mean distance moved of exposed larvae ([1]; 0.25 µM): 6.38
- mean distance moved of exposed larvae ([2]; 0.25 µM): 1.43
- mean angular velocity of exposed larvae ([3]; 0.25 µM): 0.256
- mean angular velocity of exposed larvae ([4]; 0.25 µM): 0.0567

SMILES: NC(O)(C(F)(F)F)C(F)(F)F [2-Aminohexafluoropropan-2-ol]
- mean distance moved of exposed larvae ([1]; 0.015 µM): 17.5
- mean distance moved of exposed larvae ([1]; 0.046 µM): 11.4
- mean distance moved of exposed larvae ([1]; 0.14 µM): 13
- mean distance moved of exposed larvae ([1]; 0.41 µM): 13
- mean distance moved of exposed larvae ([1]; 1.23 µM): 6.93
- mean distance moved of exposed larvae ([1]; 3.7 µM): 18.8
- mean distance moved of exposed larvae ([1]; 11.1 µM): 11.2
- mean distance moved of exposed larvae ([1]; 33.3 µM): 18.3
- mean distance moved of exposed larvae ([1]; 66.5 µM): 14.6
- mean distance moved of exposed larvae ([1]; 100 µM): 27.2
- mean distance moved of exposed larvae ([2]; 0.015 µM): 1.1
- mean distance moved of exposed larvae ([2]; 0.046 µM): 0.932
- mean distance moved of exposed larvae ([2]; 0.14 µM): 0.925
- mean distance moved of exposed larvae ([2]; 0.41 µM): 0.917
- mean distance moved of exposed larvae ([2]; 1.23 µM): 0.251
- mean distance moved of exposed larvae ([2]; 3.7 µM): 1.12
- mean distance moved of exposed larvae ([2]; 11.1 µM): 0.717
- mean distance moved of exposed larvae ([2]; 33.3 µM): 1.18
- mean distance moved of exposed larvae ([2]; 66.5 µM): 0.668
- mean distance moved of exposed larvae ([2]; 100 µM): 0.989
- mean angular velocity of exposed larvae ([3]; 0.015 µM): 0.62
- mean angular velocity of exposed larvae ([3]; 0.046 µM): 0.444
- mean angular velocity of exposed larvae ([3]; 0.14 µM): 0.508
- mean angular velocity of exposed larvae ([3]; 0.41 µM): 0.552
- mean angular velocity of exposed larvae ([3]; 1.23 µM): 0.344
- mean angular velocity of exposed larvae ([3]; 3.7 µM): 0.702
- mean angular velocity of exposed larvae ([3]; 11.1 µM): 0.423
- mean angular velocity of exposed larvae ([3]; 33.3 µM): 0.702
- mean angular velocity of exposed larvae ([3]; 66.5 µM): 0.491
- mean angular velocity of exposed larvae ([3]; 100 µM): 0.969
- mean angular velocity of exposed larvae ([4]; 0.015 µM): 0.0444
- mean angular velocity of exposed larvae ([4]; 0.046 µM): 0.0195
- mean angular velocity of exposed larvae ([4]; 0.14 µM): 0.0424
- mean angular velocity of exposed larvae ([4]; 0.41 µM): 0.0293
- mean angular velocity of exposed larvae ([4]; 1.23 µM): 0.00969
- mean angular velocity of exposed larvae ([4]; 3.7 µM): 0.0543
- mean angular velocity of exposed larvae ([4]; 11.1 µM): 0.0181
- mean angular velocity of exposed larvae ([4]; 33.3 µM): 0.0369
- mean angular velocity of exposed larvae ([4]; 66.5 µM): 0.0243
- mean angular velocity of exposed larvae ([4]; 100 µM): 0.0458
